Earlier results in US11801302B2, “Formulations and uses thereof” (priority 2020, dated 2023).
“Also recorded” adds a separate entry of the source.

Legend:
[1] = test system: skin, prostate, breast, and ovarian cancer; conditions: preclinical models of skin
[2] = test system: central benzodiazepine receptor
diuresis = conditions: dose-dependent; only when animals were fluid overloaded, not euvolemic
anxiety = conditions: in vivo
cancer = conditions: in vitro and in vivo
[3] = test system: UV-induced hyperpigmentation of the skin; conditions: in vivo
bone = conditions: in vivo
[4] = compared with other vitamin K homologs
blood pressure = conditions: in some cases patients no longer needing antihypertensive medications
[5] = test system: cholesterol transport-related protein (NPC1L1); conditions: cell model
[6] = test system: anger, mitochondrial function; conditions: in vivo
wound = conditions: setting of a wound
[7] = test system: hyperactivity induced by MK-801; conditions: in vivo
HDL and LDL cholesterol = conditions: in vivo
[8] = test system: patients who respond with increased carboxylation of osteocalcin; conditions: subset of patients with increased carboxylation of osteocalcin
chronic plaque psoriasis = conditions: topical application
[9] = test system: atypical/precancerous stem cells; conditions: used separately or together
[10] = test system: inflammatory markers PPARγ and TNFα; conditions: with emu oil; animal model of ulcerative colitis
normal mice = conditions: observed only at a dose of 30 mg/kg in normal mice

O=c1cc(-c2ccc(O)cc2)oc2cc(O)cc(O)c12 [Apigenin]
antitumor effect [1]: exerts an antitumor effect in preclinical models | anxiolytic and mild sedative effects when flumazenil is administered first ([2]; benzodiazepine antagonist flumazenil): (PMID 7617761), an effect that is reversible | effects as central benzodiazepine receptor ligand ([2]; in vivo): ligand with anxiolytic and slight sedative; also recorded: ligand with anxiolytic and mild sedative effects

C=C(C)[C@H]1CC=C(C)CC1 [D-limonene]
diuretic effect (diuresis): more capable. D-limonene has a mild diuretic | anxiolytic properties with flumazenil (anxiety): is NOT reversed by flumazenil, indicating a | production of IFN-γ, IL-2, TNF-α, IL-4 and IL-13 by CD3(+) CD4(+) T cells; IFN-γ, IL-2, and TNF-α by CD3(+) CD8(+) T cells (T lymphocytes): viability (PMID 23059811) by inhibiting

O=C(O)c1cc(O)c(O)c(O)c1 [Gallic Acid]
inhibitory properties against cancer (cancer): Plant polyphenol with strong inhibitory

CCCCC/C=C\C/C=C\CCCCCCCC(=O)O [Linoleic acid]
UV-induced hyperpigmentation of the skin [3]: shown to lighten UV-induced

CC(C)=CCC/C(C)=C/CC/C(C)=C/CC/C(C)=C/CC/C(C)=C/CC/C(C)=C/CC/C(C)=C/CC1=C(C)C(=O)c2ccccc2C1=O [MK7]
bone mineral density (bone): other vitamin K homologs. MK7 increases | bioavailability [4]: higher bioavailability | half-life [4]: longer half-life

CCCCCCCC/C=C\CCCCCCCC(=O)O [Oleic acid (OA)]
lipophilic penetration of skin cells (skin cells): Oleic acid (OA) enhances lipophilic penetration | blood pressure (blood pressure): 21181463). OA has been shown to reduce blood | expression of cholesterol transport-related protein (NPC1L1) [5]: 2235880). OA has been shown to decrease | anger [6]: unexpectedly has been shown to decrease anger | thickness of the necrotic tissue layer in the wound (wound): wound healing tissue mass, while decreasing | pain and itch receptors (pain and itch receptors): directly inhibits pain and itch receptors (PMID

O=c1c(O)c(-c2ccc(O)c(O)c2)oc2cc(O)cc(O)c12 [Quercetin]
hyperactivity induced by NMDA receptor antagonist MK-801 [7]: transmission and alleviates the hyperactivity

CCCCCCCCCCCCCCCCCC(=O)O [Stearic acid]
“bad” cholesterol LDL (HDL and LDL cholesterol): cholesterol HDL while reducing the “bad” | “good” cholesterol HDL (HDL and LDL cholesterol): 10945745) and can increase the “good”

CC(C)=CCC/C(C)=C/CC/C(C)=C/CC/C(C)=C/CC/C(C)=C/CC/C(C)=C/CC/C(C)=C/CC1=C(C)C(=O)c2ccccc2C1=O [Vitamin K2 (MK7)]
body weight, abdominal and visceral fat [8]: reduced body weight, abdominal and visceral

C=C1/C(=C\C=C2/CCC[C@]3(C)[C@@H]([C@H](C)/C=C/[C@@H](O)C4CC4)CC[C@@H]23)C[C@@H](O)C[C@@H]1O [calcipotriene]
chronic plaque psoriasis (chronic plaque psoriasis): topical application of calcipotriene improves

COc1cc(/C=C/C(=O)CC(=O)/C=C/c2ccc(O)c(OC)c2)ccc1O [curcumin, diferuloylmethane]
number of atypical/precancerous stem cells [9]: reduced the number of atypical/precancerous stem cells

CC(C)=CCC/C(C)=C/CO [geraniol]
kidney glycogen content (GLUT2 transporter; compared to diabetic control): release of glucose from the liver; also doubled | renal glucose output (GLUT2 transporter; compared to diabetic control): kidney glycogen content, doubling renal glucose | GLUT2 transporter (GLUT2 transporter; geraniol from Cymbopogon martinii): inhibition of GLUT2 transporter by geraniol

CC1(C)[C@@H](O[C@H]2O[C@H](C(=O)O)[C@@H](O)[C@H](O)[C@H]2O[C@@H]2O[C@H](C(=O)O)[C@@H](O)[C@H](O)[C@H]2O)CC[C@]2(C)[C@H]3C(=O)C=C4[C@@H]5C[C@@](C)(C(=O)O)CC[C@]5(C)CC[C@@]4(C)[C@]3(C)CC[C@@H]12 [glycyrrhizin]
anti-inflammatory effect by modulating PPARγ and TNFα [10]: synergizes with emu oil to exert a stronger anti-

C=C(C)C1CCC(C)(O)C(O)C1 (stereo not drawn) [limonene-1-2-diol]
production of IFN-γ, IL-2, TNF-α, IL-4 and IL-13 by CD3(+) CD4(+) T cells; IFN-γ, IL-2, and TNF-α by CD3(+) CD8(+) T cells (T lymphocytes): viability (PMID 23059811) by inhibiting

C=C(C)[C@@H]1CC=C(C(=O)O)CC1 [perillic acid]
production of IFN-γ, IL-2, TNF-α, IL-4 and IL-13 by CD3(+) CD4(+) T cells; IFN-γ, IL-2, and TNF-α by CD3(+) CD8(+) T cells (T lymphocytes): viability (PMID 23059811) by inhibiting

COc1cc(CCC(C)=O)ccc1O [zingerone]
diuretic effect (normal mice): Oil, zingerone exhibited a mild diuretic effect
